pIC50: −log10 of the molar value. Entries after “also recorded” stand apart in the source; their conditions may differ. Blank lines part the entries; values can stand above or below the molecule they belong to.
Tests used:
[1] = tested on: Fibroblasts that ectopically express PPARγ; assay: qPCR of FGF21 mRNA in fibroblasts that ectopically express PPARγ (Example 4); type: cell-based; details: 5 μM compound with 5 μM troglitazone, day 4 to 6
Protocol: Cells were harvested on day 6 for qPCR measurement of FGF21 mRNA. Three separate dishes of cells were analyzed for each condition.

SIRT1 [2] = biological target: T1, SIRT1 (Homo sapiens, UniProt Q96EB6); assay: SIRT1 p53-382 IC50 assay (Table 1); type: biochemical
T1 sequence (Q96EB6 1-747): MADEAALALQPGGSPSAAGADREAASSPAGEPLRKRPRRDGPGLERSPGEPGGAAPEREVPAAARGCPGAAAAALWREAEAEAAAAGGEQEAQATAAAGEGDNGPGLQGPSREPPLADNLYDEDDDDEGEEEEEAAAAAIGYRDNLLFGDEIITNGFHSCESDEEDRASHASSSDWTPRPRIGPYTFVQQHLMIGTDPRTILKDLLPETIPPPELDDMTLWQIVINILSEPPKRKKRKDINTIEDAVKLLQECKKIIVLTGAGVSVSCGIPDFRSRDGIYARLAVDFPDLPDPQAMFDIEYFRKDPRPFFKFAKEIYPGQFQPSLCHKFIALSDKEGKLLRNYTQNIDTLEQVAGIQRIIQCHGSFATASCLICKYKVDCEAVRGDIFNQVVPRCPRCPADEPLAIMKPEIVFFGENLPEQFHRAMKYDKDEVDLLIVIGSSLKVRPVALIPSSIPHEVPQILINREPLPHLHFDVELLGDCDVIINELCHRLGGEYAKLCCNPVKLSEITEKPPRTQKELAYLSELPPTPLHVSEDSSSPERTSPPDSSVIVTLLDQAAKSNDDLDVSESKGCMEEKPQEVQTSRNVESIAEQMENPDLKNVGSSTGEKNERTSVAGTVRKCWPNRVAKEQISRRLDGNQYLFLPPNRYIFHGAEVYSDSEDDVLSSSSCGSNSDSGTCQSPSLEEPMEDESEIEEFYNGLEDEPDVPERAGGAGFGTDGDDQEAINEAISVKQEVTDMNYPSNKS

SIRT1 [3] = biological target: T1, SIRT1; assay: Activity of enantiomers against the SIRT1 enzyme; type: biochemical; details: comparison of enantiomers
Swiss WT-PPARγ cells = assay: RT-PCR of Group 1 and Group 2 genes in Swiss WT-PPARγ cells; type: cell-based, mouse; details: for expression of C/EBPα and adiponectin in response to endogenous ligands (FIG. 14B) / expression of the Group 2 genes in response to endogenous ligands (FIG. 14B): antagonist 10 μM, day 5
Protocol: (§1) Cells were then harvested for extraction of RNA followed by RT-PCR analysis of FGF21 and FABP4/aP2 mRNAs as described in materials and methods. (B). […] (C). Reporter assays were also performed in Swiss fibroblasts stably expressing a WT-PPARγ or a pBabe-puro empty vector (control cells) following transfection of the FGF21 promoter reporter plasmids along with the renilla control vector in the presence or absence of GW1929. In both assays (B) and (C), a set of cells were also transfected with a reporter plasmid consisting of the PPRE from the aP2 gene upstream of luciferase within pGL3 (DR-1). Transcriptional activity of each of the fragments of the FGF21 gene promoter is shown as the ratio of luciferase to renilla activity (Luc/Ren) as described in materials and methods.
(§2) Cells were refed every 2 days.

3T3-L1 adipocytes [4] = assay: Western blot of adiponectin secretion and intracellular proteins in 3T3-L1 adipocytes; type: cell-based, Murine; details: for secretion of the HMW adiponectin complexes: non-reducing SDS-PAGE
Protocol: Cell Culture: Murine 3T3-L1 preadipocytes were cultured and maintained in DMEM supplemented with […]. Differentiation was induced by exposure of postconfluent cells to DMEM containing 10% […], 1 μM dexamethasone (DEX), 0.5 mM 3-isobutyl-1-methylxanthine (MIX) and […] insulin. After 48 hours, the medium was changed to DMEM containing 10% FBS every two days. Human embryonic kidney (HEK)-293T cells were cultured in DMEM with 10% FBS; The Swiss F-PPARγ cells were differentiated as recently described (Wang et al, 2006; accompanying paper).
Western Blot Analysis of Proteins: Isolation and western blot analysis of total cell proteins was performed as outlined previously (21). The antibodies employed in the analysis were as follows: Mouse polyclonal anti-adiponectin antibody (Affinity BioREagents, Golden, Colo.), polyclonal anti-SIRT1 antibody (Upstate), anti-PPARγ and anti-C/EBPα (Santa Cruz Biotechnology), anti-Ero1 polyclonal antibody (Abnova Co., Taiwan, China) and polyclonal anti-aP2 serum (Dr. David Benlohr at University of Minnesota). For analysis of secreted proteins, aliquots of the culture medium were centrifuged at low speed to remove debris and then subjected to standard SDS-PAGE as above or non-reducing SDS-PAGE as outlined by Kadowaki and collaborators (37). Prior to electrophoresis, the samples were mixed with 4× non-reducing protein sample buffer (200 mM, […], 8% SDS, 0.4% bromophenot blue, 40% glycerol) and incubated at room temperature for one hour. Care was taken to ensure that all components of the SDs PAGE system were completely free of reducing agents.

[5] = tested on: Swiss 3T3 fibroblasts expressing wild type PPARγ; assay: RT-PCR of mRNAs in Swiss 3T3 fibroblasts expressing wild type PPARγ (FIG. 5); type: cell-based, mouse; details: troglitazone 5 μM or T0070907 10 μM with differentiation cocktail, day 6
Protocol: Swiss 3T3 fibroblasts expressing wild type PPARγ or a control vector were induced to differentiate by exposure to a differentiation cocktail of dexamethasone, isobutylmethylxanthine and insulin in 10% FBS as outlined in Materials and Methods (Con). […] At day 6, cells were harvested for analysis of individual mRNAs as indicated using RT-PCR.
Cell Culture: Murine 3T3-L1 preadipocytes were cultured and maintained in DMEM supplemented with 0% calf serum. Differentiation was induced by exposure of postconfluent cells to DMEM containing 10% MS, 1 μM dexamethasone (DEX), 0.5 mM 3-isobutyl-1-methylxanthine (MIX) and 1,61 μM insulin. After 48 hours, the medium was changed to DMEM containing 10% FBS every two days.
A Analysis: Total RNA was isolated using TRIzol following the manufacturer's instructions and was subjected to RT-PCR analysis as outlined in the Promega product manual as previously described (31). […] In the case of analyzing Ero1-Lα mRNA, primers were the same as those listed above for generating the Ero1-Lα pRevTRE expression vector.

Swiss EF-PPARγ cells = assay: RT-PCR of Group 1 and Group 2 genes in Swiss EF-PPARγ / F-PPARγ cells
Protocol: In (A), (B) and (C), total RNA of cells was isolated at day 5 using Trizol Reagent (Invitrogen) and subjected to RT-PCR analysis of the indicated Group 1 and Group 2 genes as described in materials and methods.
Cell Culture: The Swiss fibroblast cell lines expressing wild type (WT.) and mutant forms of PPARγ (E, EF, F, DD) generated as previously described (22) and murine 3T3-L1 preadipocytes were grown in Dulbecco's modified Eagle's medium (DMEM) containing 10% FBS (fibroblasts) or 10% calf serum (preadipocytes) until confluent and were then maintained in the same medium for an additional 2 days. […] Cells were refed every 2 days.
Analysis of RNA: Total cellular RNA was prepared using TRIzol reagent (InVitrogen) according to the manufacturer's instructions. As were made from equivalent amounts of total RNA by using Reverse Transcription System (Promega) as described previously (33).

[6] = tested on: mouse FGF21 promotor constructs; assay: FGF21 promoter luciferase reporter gene assay in Swiss fibroblasts; type: cell-based; details: 1 μM GW1929, 48 hours
Protocol: as §1

[7] = tested on: Swiss F372A PPARγ cells (F-Ero1); assay: Adiponectin secretion in Swiss F372A PPARγ cells with ectopic Ero1-Lα (FIG. 9); type: cell-based, mouse; details: F-Ero1 cells + tetracycline, 50 μM resveratrol for 2 days from day 4
3T3-L1 adipocytes [8] = assay: RT-PCR of Group 1 and Group 2 genes in differentiating 3T3-L1 cells (FIG. 17); type: cell-based, murine; details: SIRT1 knockdown 3T3-L1 cells, day 4, 2 days exposure
Source text: Untreated and treated cells were harvested for analysis of select mRNAs using RT-PCR as described in materials and methods. […] (C). Model proposing interplay between PPARγ and SIRT1 in controlling adipocyte function, PPARγ functions to regulate adipocyte formation and function. Endogenous ligands activate PPARγ requiring participation of both helix 7 and 12 to orchestrate adipogenesis. In mature adipocytes, SIRT1 mediates hormonal and nutrient control of select PPARγ target genes that are involved in controlling metabolism by suppressing the action of endogenous ligands. The thiazolidinedione (TZD) family of synthetic PPARγ ligands can overcome the suppressive effects of SIRT1 acting through helix 7 as well as helix 12 to induce the metabolic genes.
as §2

Ero1-Lα = assay: Transient knockdown of Ero1-Lα in 3T3-L1 adipocytes; type: cell-based, Murine; details: 100 nM RNAi duplex, transfected day 4 and 5, harvested day 6
Protocol: 3T3-L1 preadipocytes were cultured in 60 mm dishes and induced to differentiate as described above. On day 4, the differentiation-inducing medium was replaced with 2.5 mL, fresh DMEM containing 10% FBS. 15 μL TransIT-TKO Transfection Reagent (Mirus Bio Cooperadon. Madison, Wis.) was diluted into 250 μL serum free DMEM and incubated at room temperature for 20 minutes, at which time 100 nM Ero1-Lα RNAi duplex or control duplex […]) was added and mixed thoroughly. After incubation at room temperature for another 20 minutes, the resulting TranIT-TKO/RNAi mixture was gently mixed into the adipocyte cultures. The next day, the medium was changed to 2.5 mL flesh DMEM containing 10% FBS and the transfection was repeated as on day 4. On day 6, the total cellular proteins were harvested and subjected to Western blot analysis. The modified synthetic Ero1-Lα RNAi duplexes (Stealth™ siRNA) were from Invitrogen Life Technologies. The sequences are as follows:
Western Blot Analysis of Proteins: Isolation and western blot analysis of total cell proteins was performed as outlined previously (21). […]

[9] = control and SIRT1 knock down 3T3-L1 cells, T0070907 10 μM (FIG. 6D)
[10] = troglitazone 5 μM or T0070907 10 μM, 3 days
[11] = resveratrol 50 μM or nicotinamide 5 mM, 2 days
[12] = resveratrol 50 μM or nicotinamide 5 mM, 2 days, reducing SDS-PAGE

Molecule: NC(=O)C1CCCCc2c1[nH]c1ccc(Cl)cc21 (racemic) [Compound E2]
FGF21 expression induced by troglitazone (FIG. 20) [1]: potentiate the activity of troglitazone in inducing FGF21 expression

pIC50 (SIRT1 [2]): > 6.00
Molecule: Cc1ccc2[nH]c3c(c2c1)CCCC3C(N)=O (stereo not drawn) [Compound 4, 6-Methyl-2,3,4,9-tetrahydro-1H-carbazole-1-carboxylic acid amide]

activity against the SIRT1 enzyme (SIRT1 [3]): inactive isomer
Molecule: NC(=O)C1CCCc2c1[nH]c1ccc(Cl)cc21 (stereo not drawn) [Compound E1]

activity against the SIRT1 enzyme (SIRT1 [3]): active isomer
Molecule: NC(=O)C1CCCc2c1[nH]c1ccc(Cl)cc21 (stereo not drawn) [Compound E3]
FGF21 expression induced by troglitazone (FIG. 20) [1]: potentiate the activity of troglitazone in inducing FGF21 expression

Molecule: O=C(Nc1ccncc1)c1cc([N+](=O)[O-])ccc1Cl [Compound T0070907]
expression of C/EBPα and adiponectin in response to endogenous ligands (FIG. 14B) (Swiss WT-PPARγ cells): moderately attenuate
expression of the Group 2 genes in response to endogenous ligands (FIG. 14B) (Swiss WT-PPARγ cells): almost completely block expression of the Group 2 genes; also recorded: the most potent
Ero1-Lα expression (3T3-L1 adipocytes [4]; [9]): inhibits Ero1-Lα expression
adiponectin secretion (3T3-L1 adipocytes [4]; [9]): suppresses adiponectin secretion
amount of secreted HMW adiponectin (3T3-L1 adipocytes [4]; [10]): has the opposite effect
secretion of adipsin (3T3-L1 adipocytes [4]; [10]): has the opposite effect
Ero1-Lα mRNA expression [5]: attenuates Ero1-Lα expression

transcriptional activity of the 500 bp fragment of the FGF21 gene ([6]; Swiss cells stably expressing WT-PPARγ): enhanced many fold
luciferase activity of FGF21 gene fragments (FIG. 15B) ([6]; Swiss fibroblasts co-transfected with PPARγ expression plasmid): enhanced even further
luciferase activity of FGF21 gene fragments (FIG. 15B) ([6]; control Swiss fibroblasts without PPARγ plasmid): has no affect on this activity
Molecule: CN(CCOc1ccc(C[C@H](Nc2ccccc2C(=O)c2ccccc2)C(=O)O)cc1)c1ccccn1 [GW1929]
expression of select Group 1 genes (FIG. 14A) (Swiss EF-PPARγ cells): capable of inducing expression of the Group 2 genes as well as Group 1 genes

Molecule: O=C(Nc1ccccc1)c1cc([N+](=O)[O-])ccc1Cl [GW9662]
expression of C/EBPα and adiponectin in response to endogenous ligands (FIG. 14B) (Swiss WT-PPARγ cells): moderately attenuate
expression of the Group 2 genes in response to endogenous ligands (FIG. 14B) (Swiss WT-PPARγ cells): almost completely block expression of the Group 2 genes

Molecule: C[C@@H]1C[C@@H]([C@H](O)CC2CC(=O)NC(=O)C2)C(=O)[C@@H](C)C1 [cycloheximide]
FGF21 mRNA expression (FIG. 15A) (Swiss WT-PPARγ cells; day 5 cells, troglitazone 5 μM or cycloheximide 5 μg/ml for 4, 6 or 8 hrs): induced simply due to exposure to cycloheximide

Molecule: O=C[C@H](O)[C@@H](O)[C@H](O)[C@H](O)CO [glucose]
secretion of HMW forms of adiponectin (3T3-L1 adipocytes [4]; glucose or 20 mM lactate, non-reducing SDS-PAGE without heat): significant increase in the appearance of the HMW species in the media
SIRT1 expression (3T3-L1 adipocytes [4]; increase in glucose concentration, 72 hrs): significant decrease of SIRT1 expression
amount of adiponectin secreted into the medium (Ext) (3T3-L1 adipocytes [4]; increasing concentrations of glucose, 72 hrs, reducing SDS-PAGE): dramatically increases the amount of adiponectin secreted into the medium

Molecule: NC(=O)c1cccnc1 [nicotinamide]
secretion of adipsin (3T3-L1 adipocytes [4]; [11]): has no effect on adipsin
secretion of the HMW adiponectin complexes (3T3-L1 adipocytes [4]; [11]): enhances
secretion of adiponectin (Ext) (3T3-L1 adipocytes [4]; [12]): enhancing secretion of adiponectin

Molecule: Oc1ccc(C=Cc2cc(O)cc(O)c2)cc1 [resveratrol]
secretion of adiponectin [7]: inhibits secretion of adiponectin
secretion of adipsin (3T3-L1 adipocytes [4]; [11]): without affecting secretion of adipsin
secretion of the HMW adiponectin complexes (3T3-L1 adipocytes [4]; [11]): decreases
secretion of adiponectin (Ext) (3T3-L1 adipocytes [4]; [12]): reduces the secretion of adiponectin

Molecule: Cc1c(C)c2c(c(C)c1O)CCC(C)(COc1ccc(CC3SC(=O)NC3=O)cc1)O2 (stereo not drawn) [troglitazone]
dose of troglitazone inducing FGF21 and Egln1 (FIG. 17B) (3T3-L1 adipocytes [8]): 250 nM
doses of troglitazone inducing C/EBPα, adiponectin and FABP4/aP2 (FIG. 14C) (Swiss EF-PPARγ cells; EF-PPARγ cells, 5 days): 250 to 500 nM

Molecule: OCCS [β-mercaptoethanol]
secretion of adiponectin (3T3-L1 adipocytes [4]; β-mercaptoethanol treatment, preliminary data, not shown): significantly enhances the secretion of adiponectin

Molecule: GGGCUCUCUCCAAAGUGCUUCCAUU [siRNA #3]
attenuation of Ero1-Lα expression (Ero1-Lα): the most effective
